Experiments:
M-1-P-producing enzyme [1] = test: Maltose transfer reaction without phosphate, HPLC analysis of products; type: biochemical, Corynebacterium glutamicum JCM1321; conditions: 2.0% substrate, 0.16 U/mL enzyme, one hour at 37°C
Protocol: As substrates, 2% dextrin MAX 1000 (Matsutani Chemical) and 1M phosphate buffer (pH 7) were employed. To the substrates, a suitably diluted enzyme was added, and the mixture was incubated for one hour at 37°C, followed by quantification of the produced […] through HPLC. Specifically, quantification of […] was performed through use of a DX500 chromatography system (product of DIONEX Corporation) (column: CarboPac PA1 (4x250 mm), detector: ED40 pulsed amperometric detector, eluent: (solution A) 100mM sodium hydroxide; (solution B) 100mM sodium hydroxide containing 1M sodium acetate). Linear gradient analysis was employed (initial concentration: solution.A 90% : solution B 10%, 0-17 min.: solution A 18.5% : solution B 81.5%). As standard substances, 100mM and 50mM […] products (product of SIGMA) were employed. […] One enzyme unit (1U) is defined as the amount of enzyme that produces 1 μM of […] per minute. 0.16 U/mL […]-producing enzyme was allowed to react with each of the substrates having different chain lengths (glucose, maltose, maltotriose, maltotetraose, maltopentaose, maltohexaose (Seikagaku Corporation)) (2.0%) for one hour at 37°C, and the reaction mixture was subjected to HPLC for analysis in a manner similar to that described in Example 1 (the results are represented as peak area). The retention times of maltooligosaccharides (DP=1 to 11) were estimated through analysis of dextrin (Matsutani Chemical).

M-1-P-producing enzyme [2] = test: Substrate specificity: production of M-1-P from phosphate and saccharide substrates, HPLC quantification; type: biochemical, Corynebacterium glutamicum JCM1321; conditions: 2.5% substrate, 250mM phosphate buffer (pH 7), 0.16 U/mL enzyme, 15 hours at 37°C
Protocol: As substrates, 2% dextrin MAX 1000 (Matsutani Chemical) and 1M phosphate buffer (pH 7) were employed. To the substrates, a suitably diluted enzyme was added, and the mixture was incubated for one hour at 37°C, followed by quantification of the produced […] through HPLC. Specifically, quantification of […] was performed through use of a DX500 chromatography system (product of DIONEX Corporation) (column: CarboPac PA1 (4x250 mm), detector: ED40 pulsed amperometric detector, eluent: (solution A) 100mM sodium hydroxide; (solution B) 100mM sodium hydroxide containing 1M sodium acetate). Linear gradient analysis was employed (initial concentration: solution.A 90% : solution B 10%, 0-17 min.: solution A 18.5% : solution B 81.5%). As standard substances, 100mM and 50mM […] products (product of SIGMA) were employed. […] One enzyme unit (1U) is defined as the amount of enzyme that produces 1 μM of […] per minute. To 2.5% Dextrin MAX 1000 (Matsutani Chemical) and 250mM phosphate buffer (pH 7), 0.16 U/mL M-1-P-producing enzyme was added, and the mixture was allowed to react for 15 hours at 37°C. In a manner similar to that described in Example 1, […] was quantified. […] To 250mM Phosphate buffer (pH 7) and each of substrates having different chain lengths (glucose, maltose, maltotriose, maltotetraose, maltopentaose, maltohexaose (Seikagaku Corporation)) (2.5%), 0.16 U/mL M-1-P-producing enzyme was added, and the mixture was allowed to react for 15 hours at 37°C. In a manner similar to that described in Example 1, […] was quantified.

Row | Product (Peak area x 10^6): DP=3 (M-1-P-producing enzyme [1]) | Product (Peak area x 10^6): DP=4 (M-1-P-producing enzyme [1]) | Product (Peak area x 10^6): DP=5 (M-1-P-producing enzyme [1]) | Product (Peak area x 10^6): DP=6 (M-1-P-producing enzyme [1]) | Product (Peak area x 10^6): DP=7 (M-1-P-producing enzyme [1]) | Product (Peak area x 10^6): DP=8 (M-1-P-producing enzyme [1]) | Product (Peak area x 10^6): DP=9 (M-1-P-producing enzyme [1]) | Product (Peak area x 10^6): DP=10 (M-1-P-producing enzyme [1]) | Product (Peak area x 10^6): DP=11 (M-1-P-producing enzyme [1]) | Product (Peak area x 10^6): Glucose (M-1-P-producing enzyme [1]) | Product (Peak area x 10^6): Maltose (M-1-P-producing enzyme [1]) | Amount of maltose-1-phosphate produced (M-1-P-producing enzyme [2]) [µM] | SMILES
1 | 0.27 x 10^6 | 0.00 x 10^6 | 0.00 x 10^6 | 0.00 x 10^6 | 0.00 x 10^6 | 0.00 x 10^6 | 0.00 x 10^6 | 0.00 x 10^6 | 0.00 x 10^6 | 0.19 x 10^6 | 46.79 x 10^6 | – | OC[C@H]1O[C@H](O[C@H]2[C@H](O)[C@@H](O)C(O)O[C@@H]2CO)[C@H](O)[C@@H](O)[C@@H]1O (mixture of isomers) [Maltose]
2 | 0.00 x 10^6 | 0.00 x 10^6 | 0.00 x 10^6 | 0.00 x 10^6 | 0.00 x 10^6 | 0.00 x 10^6 | 0.00 x 10^6 | 0.00 x 10^6 | 0.00 x 10^6 | 65.97 x 10^6 | 0.00 x 10^6 | – | OC[C@H]1OC(O)[C@H](O)[C@@H](O)[C@@H]1O (some centres unmarked) [Glucose]
3 | 0.12 x 10^6 | 0.19 x 10^6 | 9.59 x 10^6 | 0.00 x 10^6 | 6.36 x 10^6 | 0.00 x 10^6 | 3.42 x 10^6 | 0.00 x 10^6 | 3.47 x 10^6 | 0.11 x 10^6 | 0.28 x 10^6 | 96.1 | OC[C@H]1O[C@H](O[C@H]2[C@H](O)[C@@H](O)[C@@H](O[C@H]3[C@H](O)[C@@H](O)[C@@H](O[C@H]4[C@H](O)[C@@H](O)[C@@H](O[C@H]5[C@H](O)[C@@H](O)[C@@H](O[C@H]6[C@H](O)[C@@H](O)[C@@H](O[C@H]7[C@H](O)[C@@H](O)C(O)O[C@@H]7CO)O[C@@H]6CO)O[C@@H]5CO)O[C@@H]4CO)O[C@@H]3CO)O[C@@H]2CO)[C@H](O)[C@@H](O)[C@@H]1O (some centres unmarked) [Maltoheptaose]
4 | 0.37 x 10^6 | 10.20 x 10^6 | 0.00 x 10^6 | 8.87 x 10^6 | 0.00 x 10^6 | 5.04 x 10^6 | 0.00 x 10^6 | 3.96 x 10^6 | 0.00 x 10^6 | 0.05 x 10^6 | 0.61 x 10^6 | 49.6 | OC[C@H]1O[C@H](O[C@H]2[C@H](O)[C@@H](O)[C@@H](O[C@H]3[C@H](O)[C@@H](O)[C@@H](O[C@H]4[C@H](O)[C@@H](O)[C@@H](O[C@H]5[C@H](O)[C@@H](O)[C@@H](O[C@H]6[C@H](O)[C@@H](O)C(O)O[C@@H]6CO)O[C@@H]5CO)O[C@@H]4CO)O[C@@H]3CO)O[C@@H]2CO)[C@H](O)[C@@H](O)[C@@H]1O (some centres unmarked) [Maltohexaose]
5 | 0.51 x 10^6 | 0.58 x 10^6 | 26.40 x 10^6 | 0.00 x 10^6 | 0.52 x 10^6 | 0.00 x 10^6 | 0.00 x 10^6 | 0.00 x 10^6 | 0.00 x 10^6 | 0.09 x 10^6 | 0.27 x 10^6 | 1.04 | OC[C@H]1O[C@H](O[C@H]2[C@H](O)[C@@H](O)[C@@H](O[C@H]3[C@H](O)[C@@H](O)[C@@H](O[C@H]4[C@H](O)[C@@H](O)[C@@H](O[C@H]5[C@H](O)[C@@H](O)C(O)O[C@@H]5CO)O[C@@H]4CO)O[C@@H]3CO)O[C@@H]2CO)[C@H](O)[C@@H](O)[C@@H]1O (some centres unmarked) [Maltopentaose]
6 | 1.25 x 10^6 | 30.80 x 10^6 | 0.00 x 10^6 | 0.36 x 10^6 | 0.00 x 10^6 | 0.00 x 10^6 | 0.00 x 10^6 | 0.00 x 10^6 | 0.00 x 10^6 | 0.19 x 10^6 | 0.15 x 10^6 | – | OC[C@H]1O[C@H](O[C@H]2[C@H](O)[C@@H](O)[C@@H](O[C@H]3[C@H](O)[C@@H](O)[C@@H](O[C@H]4[C@H](O)[C@@H](O)C(O)O[C@@H]4CO)O[C@@H]3CO)O[C@@H]2CO)[C@H](O)[C@@H](O)[C@@H]1O (some centres unmarked) [Maltotetraose]
7 | 33.27 x 10^6 | 0.12 x 10^6 | 0.00 x 10^6 | 0.00 x 10^6 | 0.00 x 10^6 | 0.00 x 10^6 | 0.00 x 10^6 | 0.00 x 10^6 | 0.00 x 10^6 | 0.52 x 10^6 | 1.84 x 10^6 | – | OC[C@H]1O[C@H](O[C@H]2[C@H](O)[C@@H](O)[C@@H](O[C@H]3[C@H](O)[C@@H](O)C(O)O[C@@H]3CO)O[C@@H]2CO)[C@H](O)[C@@H](O)[C@@H]1O (some centres unmarked) [Maltotriose]

Reference: patent EP1910527B1, “MALTOSE-1-PHOSPHATE-PRODUCING ENZYME” (Kao Corporation, priority 2005, dated 2007)
